Data on 21 compounds can be found in PubChem BioAssay AID330 (DTP/NCI, 2004).

The assay deals with P388 leukemia ip, CD2F1 mice, survival T/C. Kind of assay: NCI In Vivo Anticancer Drug Screen. Data for tumor model P388 Leukemia (intraperitoneal) in CD2F1 (CDF1) mice. The settings on record: endpoint: median survival time, higher = longer survival. The essentials: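 Mice carrying the transplanted tumor received test compound or vehicle. Survival was recorded in each group, and the value is the treated-group measurement divided by that of the vehicle-treated control group.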

Setting [1] is: dose: 100.0 mg/kg/injection, schedule: Q04DX002 (ip), vehicle: saline.
The mark [2] stands for this setting: dose: 200.0 mg/kg/injection, schedule: Q04DX002 (ip), vehicle: saline.
Where [3] appears, read: dose: 400.0 mg/kg/injection, schedule: Q04DX002 (ip), vehicle: saline.
[4] abbreviates: dose: 50.0 mg/kg/injection, schedule: Q01DX005 (ip), vehicle: Klucel (hydroxypropylcellulose) (HPC).
The mark [5] stands for this setting: dose: 100.0 mg/kg/injection, schedule: Q01DX005 (ip), vehicle: Klucel (hydroxypropylcellulose) (HPC).
Where [6] appears, read: dose: 200.0 mg/kg/injection, schedule: Q01DX005 (ip), vehicle: Klucel (hydroxypropylcellulose) (HPC).
Where [7] appears, read: dose: 100.0 mg/kg/injection, schedule: Q01DX009 (ip), vehicle: saline with Tween-80.
The mark [8] stands for this setting: dose: 25.0 mg/kg/injection, schedule: Q01DX009 (ip), vehicle: saline with Tween-80.
Where [9] appears, read: dose: 50.0 mg/kg/injection, schedule: Q01DX009 (ip), vehicle: saline with Tween-80.
The mark [10] stands for this setting: dose: 60.0 mg/kg/injection, schedule: Q01DX005 (ip), vehicle: saline with Tween-80.
Setting [11] is: dose: 120.0 mg/kg/injection, schedule: Q01DX005 (ip), vehicle: saline with Tween-80.
Setting [12] is: dose: 240.0 mg/kg/injection, schedule: Q01DX005 (ip), vehicle: saline with Tween-80.
Setting [13] is: dose: 50.0 mg/kg/injection, schedule: Q01DX009 (ip), vehicle: saline.
Setting [14] is: dose: 100.0 mg/kg/injection, schedule: Q01DX009 (ip), vehicle: saline.
The mark [15] stands for this setting: dose: 200.0 mg/kg/injection, schedule: Q01DX009 (ip), vehicle: saline.
Where [16] appears, read: dose: 12.5 mg/kg/injection, schedule: Q01DX009 (ip), vehicle: saline.

Each structure is given as a SMILES string. Values joined by “and” are separate entries in the source; they are usually repeats but may differ in a detail not shown here. Equal entries are not always repeated. Toxic doses and inconclusive results are not listed.

As for `CCOC(=O)C1C(=O)NN(/C=C2\C=CC=CC2=O)C1c1ccc([N+](=O)[O-])cc1` (stereo unspecified), the T/C is, setting by setting: under setting [1], 111 % of control; under setting [2], 93 % of control; under setting [3], 98 % of control.
In the case of `CC(=O)c1ccc2oc(C(C)=O)cc2c1`, the T/C was 97 % of control (dose: 2.5 mg/kg/injection, schedule: Q01DX009 (ip), vehicle: saline with Tween-80) and 96 % of control (dose: 5.0 mg/kg/injection, schedule: Q01DX009 (ip), vehicle: saline with Tween-80).
Take `CCCCCCCCCC(O)C(O)C1CCC(C2CCC(C(O)CCCCCCCCCCCCC3=CC(C)OC3=O)O2)O1` (stereo unspecified): the T/C runs as follows: (dose: 0.35 mg/kg/injection, schedule: Q01DX005 (ip), vehicle: Klucel (hydroxypropylcellulose) (HPC)) 103 % of control and 97 % of control; (dose: 0.7 mg/kg/injection, schedule: Q01DX005 (ip), vehicle: Klucel (hydroxypropylcellulose) (HPC)) 100 % of control and 99 % of control; (dose: 1.4 mg/kg/injection, schedule: Q01DX005 (ip), vehicle: Klucel (hydroxypropylcellulose) (HPC)) 112 % of control and 100 % of control; (dose: 2.8 mg/kg/injection, schedule: Q01DX005 (ip), vehicle: Klucel (hydroxypropylcellulose) (HPC)) 106 % of control and 113 % of control.
As for `CC1(C)CN(c2ccccc2)N(C(=O)C(=O)N2C(=O)C(C)(C)CN2c2ccccc2)C1=O`, the T/C is 104 % of control under setting [1], 102 % of control under setting [2] and 100 % of control under setting [3].
With `CN(C)C1CC2C=CC1C1C=CC21` (stereo unspecified), the T/C is 100 % of control (dose: 3.13 mg/kg/injection, schedule: Q01DX009 (ip), vehicle: water); 99 % of control (dose: 6.25 mg/kg/injection, schedule: Q01DX009 (ip), vehicle: water); 100 % of control (dose: 12.5 mg/kg/injection, schedule: Q01DX009 (ip), vehicle: water); 99 % of control (dose: 25.0 mg/kg/injection, schedule: Q01DX009 (ip), vehicle: water); 98 % of control (dose: 50.0 mg/kg/injection, schedule: Q01DX009 (ip), vehicle: water).
As for `C=C(C)C(=NC)NC(C)(C)C`, the T/C under setting [4] is 100 % of control and the T/C under setting [5] was 102 % of control.
For `Cn1nc(-c2ccccc2)c([N+](=O)[O-])c1NCc1ccccc1`, the T/C is, setting by setting: under setting [4], 97 % of control; under setting [5], 100 % of control; under setting [6], 97 % of control.
For `CC1OC(=O)c2ccccc2S1=O` (stereo unspecified), the T/C was 95 % of control under setting [7]; 90 % of control (dose: 200.0 mg/kg/injection, schedule: Q01DX009 (ip), vehicle: saline with Tween-80); 95 % of control (dose: 400.0 mg/kg/injection, schedule: Q01DX009 (ip), vehicle: saline with Tween-80).
In the case of `Cn1c(C=O)cc2c(Cl)nccc21`, the T/C was 103 % of control under setting [4], 103 % of control under setting [5] and 101 % of control under setting [6].
Consider `Clc1nnc(-c2ccccc2)c(-c2ccccc2)n1`, for which the T/C is, setting by setting: under setting [8], 100 % of control; under setting [9], 100 % of control; under setting [7], 100 % of control.
In the case of `COc1cc2c(c(OC)c1OC)-c1ccc(SC)c(=O)cc1[C@@H](NC(=O)NCCCl)CC2`, the T/C is, setting by setting: (dose: 1.5 mg/kg/injection, schedule: Q01DX009 (ip), vehicle: water) 110 % of control; (dose: 6.0 mg/kg/injection, schedule: Q01DX009 (ip), vehicle: water) 150 % of control; (dose: 12.0 mg/kg/injection, schedule: Q01DX009 (ip), vehicle: water) 155 % of control; (dose: 13.5 mg/kg/injection, schedule: Q01DX009 (ip), vehicle: water) 150 % of control and 163 % of control.
Consider `CC(C)(C)[Si](C)(C)CC#C[Si](C)(C)C`, for which the T/C runs as follows: (dose: 50.0 mg/kg/injection, schedule: Q01DX005 (ip), vehicle: saline with Tween-80) 104 % of control; (dose: 100.0 mg/kg/injection, schedule: Q01DX005 (ip), vehicle: saline with Tween-80) 103 % of control.
For `NNC(=O)C1CC2c3ccccc3C1c1ccccc12` (stereo unspecified), the T/C under setting [10] was 101 % of control, the T/C under setting [11] was 99 % of control and the T/C under setting [12] is 97 % of control.
In the case of `CCOC1CN(C(=O)OC)N1C(=O)OC` (stereo unspecified), the T/C is 100 % of control under setting [13], 107 % of control under setting [14] and 105 % of control under setting [15].
Take `COc1cc(NS(C)(=O)=O)ccc1Nc1c2ccc(Cl)cc2nc2c(OC)cccc12`: the T/C is 166 % of control (dose: 3.13 mg/kg/injection, schedule: Q01DX009 (ip), vehicle: saline); 195 % of control (dose: 6.25 mg/kg/injection, schedule: Q01DX009 (ip), vehicle: saline); 154 % of control (dose: 6.25 mg/kg/injection, schedule: Q04DX003 (ip), vehicle: saline with Tween-80); 179 % of control (dose: 8.25 mg/kg/injection, schedule: Q04DX003 (ip), vehicle: saline with Tween-80); 208 % of control under setting [16]; 170 % of control and 204 % of control (dose: 12.5 mg/kg/injection, schedule: Q04DX003 (ip), vehicle: saline with Tween-80). For the same compound, the T/C (dose: 18.75 mg/kg/injection, schedule: Q04DX003 (ip), vehicle: saline with Tween-80) is 229 % of control.
Regarding `COc1cc(CCC(=O)O)on1`, the T/C under setting [13] is 101 % of control, the T/C under setting [14] was 109 % of control and the T/C under setting [15] was 108 % of control.
As to `CC(=O)OCC#CCN1CCCCC1`, the T/C is 102 % of control (dose: 6.25 mg/kg/injection, schedule: Q01DX005 (ip), vehicle: saline); 104 % of control (dose: 12.5 mg/kg/injection, schedule: Q01DX005 (ip), vehicle: saline); 101 % of control (dose: 25.0 mg/kg/injection, schedule: Q01DX005 (ip), vehicle: saline).
Consider `CCCCCC(C)N` (stereo unspecified), for which the T/C is, setting by setting: under setting [16], 95 % of control; (dose: 25.0 mg/kg/injection, schedule: Q01DX009 (ip), vehicle: saline) 90 % of control.
Take `CSc1cccc(NC(=O)Nc2ccc(S(N)(=O)=O)cc2)c1`: the T/C (dose: 50.0 mg/kg/injection, schedule: Q01DX009 (ip), vehicle: Klucel (hydroxypropylcellulose) (HPC)) was 92 % of control and the T/C (dose: 100.0 mg/kg/injection, schedule: Q01DX009 (ip), vehicle: Klucel (hydroxypropylcellulose) (HPC)) is 87 % of control.
As for `CC(=O)OCc1c(C)[nH]c2ccc(N(C)C)cc2c1=O`, the T/C under setting [10] is 88 % of control, the T/C under setting [11] is 103 % of control and the T/C under setting [12] is 111 % of control.
`NC(=Nc1ccccc1)Nc1ccccc1`: the T/C is 99 % of control (dose: 12.5 mg/kg/injection, schedule: Q01DX009 (ip), vehicle: saline with Tween-80); 104 % of control under setting [8]; 102 % of control under setting [9].
